Source: patent US20060004029A1, “Nitrogen-containing aromatic derivatives” (priority 2003, published 2006)

Experiments:
[1] = test system: Human Umbilical Vein Endothelial Cells (HUVECs); assay: Inhibition against sandwich tube formation by vascular endothelial cells, VEGF-stimulated; format: cell-based; details: HUVEC, 25 ng/ml VEGF and 10 ng/ml EGF, 4th day after addition
Experimental: (§1) Human Umbilical Vein Endothelial Cells (HUVECs) were isolated according to a reported method (Shinseikagaku Jikken Koza [New Biochemistry Experiment Lectures], “Saibo Baiyo Gijutsu” [Cell Culturing Techniques], p. 197-202), • and were cultured in a 5% CO2 incubator (37° C.) using EGM-2 medium (purchased from Clonetics Corp.) until the cells reached confluency.
(§2) An ice-cooled mixture of collagen: 5×RPMI 1640: reconstitution buffer (all purchased from Nitta Gelatin, Inc.) at 7:2:1 was dispensed at 0.4 ml into each well of a 24-well plate. After the solution was gelled by being stationed for 40 minutes in a 5% CO2 incubator (37° C.), HUVEC cell suspension was added at 0.4 ml to each well (using 1 to 1.2×10^5 cells, though the numbers of cells differ slightly according to the HUVEC lot), the HUVEC cell suspension being in human endothelial serum free medium (SFM, purchased from GIBCO BRL) containing added angiogenesis factors [20 ng/ml FGF2 (purchased from GIBCO BRL) and 10 ng/ml EGF (purchased from GIBCO BRL), or 25 ng/ml VEGF (purchased from Wako Pure Chemical Industries Co., Ltd.) and 10 ng/ml EGF, or 30 ng/ml HGF (purchased from R&D Co.) and 10 ng/ml EGF], and cultured overnight in a 5% CO2 incubator (37° C.). On the following day, the medium on the upper layer was aspirated off, and then 0.4 ml of an ice-cooled mixture of collagen: 5×RPMI 1640: reconstitution buffer (all purchased from Nitta Gelatin, Inc.) at 7:2:1 was superposed into each well prior to stationing for 4 hours in a 5% CO2 incubator (37° C.) for gelling. After adding 1.5 ml of an SFM solution containing each of the aforementioned angiogenesis factors and a diluted test substance onto the upper layer, culturing was performed in a 5% CO2 incubator (37° C.). Upon aspirating off the culture supernatant in each well on the 4th day after addition of the test substance, 0.4 ml of a 3.3 mg/ml MTT solution dissolved in PBS (purchased from Sigma Corp.) was added to each well and culturing was performed for approximately 2 hours in a 5% CO2 incubator (37° C.). The tubes formed in the collagen gel of each well were stained by MTT, the tube images were loaded into a computer (Macintosh), and the total length of the tubes was determined by image analysis software “MacScope” (purchased from Mitani Corp.). The ratio of the total length of the tubes formed in the well containing the test substance with respect to the total length of the tubes formed in the well containing no test substance was expressed as a percentage, and the concentration of each test substance required for 50% inhibition of tube formation (IC50) was determined from the ratio value.

[2] = test system: Human Umbilical Vein Endothelial Cells (HUVECs); assay: Inhibition against sandwich tube formation by vascular endothelial cells, FGF2-stimulated; format: cell-based; details: HUVEC, 20 ng/ml FGF2 and 10 ng/ml EGF, 4th day after addition
Experimental: as §1, §2

[3] = test system: KP-1/VEGF human pancreatic cancer cells; assay: In vivo angiogenesis-inducing activity using mouse dorsal air sac model; details: oral, once a day, C57BL/6N female mice, 4th day
Experimental: PCR was conducted using a human placenta cDNA library (Toyobo Co., Ltd.) as the template and the SEQ ID NO:1 (5′[…]3′) and SEQ ID NO:2 (5′[…]3′) of VEGF as primers. After completion of the PCR reaction, the 5′ ends were phosphorylated and an approximately 600 bp DNA band was separated by 1.2% agarose gel electrophoresis. After polymerization by self-ligation, the cDNA was cut with EcoRI and BamHI and inserted into the EcoRI and BamHI sites of vector pUC19. This was used to transform E. coli JM83, and plasmids were recovered from the transformed clones. A VEGF cDNA fragment was cut out of the plasmids with HindIII and EcoRI and then inserted into pIRES2-rsGFP vector to yield pIRES2-rsGFP/VEGF for protein expression.
After overnight culturing of KP-1 human pancreatic cancer cells (3×10^6 cells) with 10% FCS-containing RPMI 1640 medium, an Effectene Transfection Reagent Kit (Qiagen) was used for introduction of 3 μg of pIRES2-rsGFP/VEGF into the KP-1 cells. After culturing in 10% FCS-containing RPMI 1640 medium containing 600 μg/ml of Geneticin, drug-resistant cells were selected. Furthermore, GFP high-expressing cells were collected by cell sorter (Becton Dickinson) as VEGF high-expressing KP-1 cells (KP-1/VEGF).
The KP-1/VEGF cells were prepared to 5×10^5 cells/ml, and 0.5 ml thereof was dispensed into each well of a 24-well plate and cultured at 37° C. for 24 hours. The culture supernatants were collected and the VEGF levels thereof measured using a VEGF measuring kit (IBL Co., Ltd.) for confirmation of high expression.
Millipore rings (Nihon Millipore) were sealed with 0.45 μm Durapore filter membranes (Nihon Millipore) to create chambers. KP-1/VEGF human pancreatic cancer cells (3×10^6) suspended in 0.17 ml of collagen gel were injected into each chamber through the injection port, and the chambers were sealed. Approximately 10 ml of air was then injected in the dorsal skin of 6-week-old C57BL/6N female mice under anesthesia to produce pouches, and the prepared chambers were transplanted therein. About 6 hours after completing transplantation, a test substance suspended in 0.5% methyl cellulose was orally administered (0.1 ml/10 g body weight), and this was continued once a day for the next 4 days.
On the 4th day after transplanting the chambers, 0.2 ml of ^51Cr (Amersham Pharmacia)-labeled mouse erythrocytes (2.5×10^6 cpm/ml) were injected through the caudal veins of each of the mice with the transplanted chambers. After a prescribed period, the skin in contact with the chamber was excised and frozen, the section in direct contact with the chamber was precisely cut off, and the radioactivity was measured with a Y-counter. The blood volume was calculated from the radioactivity and used as an index of the in vivo angiogenesis-inducing activity. The angiogenesis volume was recorded as this measured blood volume minus the blood volume obtained with transplantation of a chamber containing only collagen gel. The experiment was conducted using 10 mice in the control (solvent-administered) group and 5 mice in each compound-administered group.

SMILES | IC50 [1] [nM] | IC50 [2] [nM] | proportion of the angiogenesis amount after administering test substance to that of control ([3]; 30 mg/kg/day) [%] | proportion of the angiogenesis amount after administering test substance to that of control ([3]; 100 mg/kg/day) [%]
CNC(=O)n1ccc2cc(Oc3ccnc(NC(=O)N4CCC(O)CC4)c3)ccc21 [Example 39, N1-Methyl-5-(2-((4-hydroxypiperidino)carbonyl)amino-4-pyridyl)oxy-1H-1-indolecarboxamide] | 5.1 | 470 | – | –
CNC(=O)n1ccc2cc(Oc3ccnc(NC(=O)N4CCC(C)(O)CC4)c3)ccc21 [Example 41, 5-(2-(((4-Hydroxy-4-methylpiperidin-1-yl)carbonyl)amino)pyridin-4-yloxy)-1H-1-indole-1-carboxylic acid methylamide] | 2.1 | 250 | – | –
CNC(=O)n1ccc2cc(Oc3ccnc(NC(=O)N4CCC(N5CCCC5)CC4)c3)ccc21 [Example 46, N1-Methyl-5-(2-(((4-(pyrrolidin-1-yl)piperidin-1-yl)carbonyl)amino)pyridin-4-yloxy)-1H-1-indolecarboxamide] | 7 | 470 | 59.9 | 43.7
CNC(=O)n1ccc2cc(Oc3ccnc(NC(=O)N4CCC(N5CCCCC5)CC4)c3)ccc21 [Example 47, N1-Methyl-5-(2-(((4-(piperidin-1-yl)piperidin-1-yl)carbonyl)amino)pyridin-4-yloxy)-1H-1-indolecarboxamide] | 5.8 | 120 | 87.4 | 39.5
CNC(=O)n1ccc2cc(Oc3ccnc(NC(=O)N4CCOCC4)c3)ccc21 [Example 53, N4-(4-(1-(Methylamino)carbonyl-1H-5-indolyl)oxy-2-pyridyl)-4-morpholinecarboxamide] | 6.7 | 440 | 43.3 | 44.4
